Measured values from patent publication EP4722246A1, “TEM8-TARGETED ANTIBODY OR ANTIGEN-BINDING FRAGMENT THEREOF, AND USE THEREOF” (Inxmed (Nanjing) Co., Ltd., priority 2023, dated 2024).
Starred links: 1 amine or outer side, 2 acyl side, 3 side chain; linkers in the order of their positions; H or OH if unused. Non-standard residues stand in square brackets, D forms with d. Residues, ends and D or L forms follow the SMILES beside them. *: point of attachment. Dolaproine = CO[C@@H]([C@@H]1CCCN1)[C@@H](C)C(=O)O; Hexanoyl(6-maleimido) = O=C1C=CC(=O)N1CCCCCC(=O)*; Dil = CC[C@H](C)[C@H](NC)[C@@H](CC(=O)O)OC; PABC = O=C(OCc1ccc(N[*:1])cc1)[*:2]; X1 = C[C@@H](N*)[C@@H](O)c1ccccc1; Cit = NC(=O)NCCC[C@H](N)C(=O)O; NMeV = CN[C@H](C(=O)O)C(C)C

Test system: HCT116
Assay: ADC in vitro cell killing assay (CCK-8)
Assay type: cell-based, human
Details: HCT116, 72 h
Method: HCT116 (Cat: CBP60028, Cobioer Biosciences Co., Ltd.) in the logarithmic growth phase was trypsinized, plated in a 96-well plate at 3000 cells/well in 100 µL, and the plate was incubated in a 37°C, 5% CO2 incubator for 24 h. ADC was subjected to a 5-fold serial dilution with cell culture medium (Ham's F-12K, 10% FBS, AusGenex, Cat:FBS500-S) starting from 30000nM, yielding 10 concentration gradients. 10 µL of the diluted sample was added to the cell plate for mixing well, and the plate was incubated in a 37°C, 5% CO2 incubator for 72 h. 10 µL of Cell Counting Kit-8 (CellorLab, CX001) was added to the plate, and the plate was incubated in a 37 °C, 5% CO2 constant temperature incubator for 3 h. The absorbance value at 450 nm was measured with a microplate reader. Data was analyzed with Graphpad, with the in vitro killing activity of TEM8 antibody-drug conjugate shown in Table 5 and the IC50 curve shown in FIG. 4. Table 5: In vitro killing activity of TEM8 antibody-drug conjugate or linker + payload or payload

CC[C@H](C)[C@@H]([C@@H](CC(=O)N1CCC[C@H]1[C@H](OC)[C@@H](C)C(=O)N[C@H](C)[C@@H](O)c1ccccc1)OC)N(C)C(=O)[C@@H](NC(=O)[C@H](C(C)C)N(C)C(=O)OCc1ccc(NC(=O)[C@H](CCCNC(N)=O)NC(=O)[C@@H](NC(=O)CCCCCN2C(=O)C=CC2=O)C(C)C)cc1)C(C)C [VcMMAE] ({Hexanoyl(6-maleimido)}-V[Cit][PABC][NMeV]V[Dil][Dolaproine]-X1)
IC50: 1280 nM

CC[C@H](C)[C@@H]([C@@H](CC(=O)N1CCC[C@H]1[C@H](OC)[C@@H](C)C(=O)N[C@H](C)[C@@H](O)c1ccccc1)OC)N(C)C(=O)[C@@H](NC(=O)[C@@H](NC)C(C)C)C(C)C [MMAE] (H-[NMeV]V[Dil][Dolaproine]-X1)
IC50: 14.8 nM
